Read-outs that look alike come from different tables or passages of the source.
What was measured:
δOR = target: T1, δOR (Homo sapiens, UniProt P41143); experiment: competitive radioligand binding with [3H]diprenorphine, membranes of transfected HEK 293T cells
T1 construct: expressed in transfected cells; host or cells: HEK 293T cells, transient transfection, membrane preparation
Protocol: (§1) To verify the subtype selectivity of the described compounds for µOR over δOP and κOR, respectively, the binding affinities of the described examples to the different human opioid receptors in an in-vitro test system were measured.
(§2) For the determination of receptor binding affinity competitive radioligand binding experiments were performed as described in literature (H. Huebner, C. Haubmann, W. Utz, P. Gmeiner, J. Med. Chem., 2000, 43, 756-762). In brief, HEK 293T cells were transiently transfected with the cDNAs coding for the human opioid receptor subtypes µOR, δOR, and kOR, respectively, using a solution of polyethylenimine in PBS (PEI, linear, 25 kDa, Polysciences) as transfection reagent at a 3:1 PEI to cDNA ratio (I. Fish, A. Stoessel, K. Eitel, C. Valant, S. Albold, H. Huebner, D. Moeller, M.J. Clark, R.K. Sunahara, A. Christopoulos, B.K. Shoichet, P. Gmeiner, J. Med. Chem., 2017, 60, 9239-9250). After preparation of membranes, radioligand displacement assays were run in 96-well format at a final volume of 200 µL in binding buffer (50 mM Tris-HCI, 1 mM EDTA, 5 mM MgCl2, 100 µg/mL bacitracin, 5 µg/mL soybean trypsin inhibitor, pH 7.4) with the radioligand [^3H]diprenorphine (specific activity = 31 Ci/mmol) at a final concentration of 0.20-0.30 nM. […] Unspecific binding was determined in the presence of 10 µM of the naloxone. Protein concentrations were determined employing the method of Lowry with bovine serum albumin as standard (O.H. Lowry, N.J. Rosebrough, A.L. Farr, R.J. Randall, J. Biol. Chem., 1951, 193, 265-275). The resulting competition curves of the receptor binding experiments were analyzed by nonlinear regression. The data were initially fit using a sigmoid model to provide IC50 values, which were subsequently transformed to Ki values according to the equation of Cheng and Prusoff (Y.-C. Cheng, W. H. Prusoff, Biochem. Pharmacol., 1973, 22, 3099-3108). Three to seven experiments per compound were performed, with each concentration in triplicate.

κOR = target: T2, κOR (Homo sapiens, UniProt P41145); experiment: as above
T2 construct: expressed in transfected cells; host or cells: HEK 293T cells, transient transfection, membrane preparation
Protocol: as §1
After preparation of membranes, radioligand displacement assays were run in 96-well format at a final volume of 200 µL in binding buffer (50 mM Tris-HCI, 1 mM EDTA, 5 mM MgCl2, 100 µg/mL bacitracin, 5 µg/mL soybean trypsin inhibitor, pH 7.4) with the radioligand [^3H]diprenorphine (specific activity = 31 Ci/mmol) at a final concentration of 0.20-0.30 nM. […] Unspecific binding was determined in the presence of 10 µM of the naloxone. […] The resulting competition curves of the receptor binding experiments were analyzed by nonlinear regression. […] Three to seven experiments per compound were performed, with each concentration in triplicate.

µOR [1] = target: T3, µOR (Homo sapiens, UniProt P35372); experiment: G-protein mediated signaling, IP1 accumulation assay (HTRF) in HEK-293T cells with hybrid G-protein Gαqi; format: cell-based; set-up: expressed in transfected cells; host or cells: HEK-293T cells, transient transfection; settings: for Emax: HEK-293T, read-out: G-protein signaling Emax
Protocol: (§3) Functionally selective drugs, which are biased towards Gi protein activation over β-arrestin signaling at the µOR are indicated to show an improved side effect profile. Thus, the characterization of the functional properties of the described examples at the µOR were performed by determination of the ligand stimulated G-protein related signaling and β-arrestin recruitment applying cell based in-vitro test systems. Full and partial agonists as well as antagonists for G protein related signaling were identified.
The determination of G-protein stimulated µOR activation was measured applying an IP1 accumulation assay as described previously (J. Kruell, S.K. Fehler, L. Hofmann, N. Nebel, S. Maschauer, O. Prante, P. Gmeiner, H. Lanig, H. Huebner, M.R. Heinrich. ChemMedChem 2020, 15, 1175-1186. C. Gentzsch, K. Seier, A. Drakopoulos, M.-L. Jobin, Y. Lanoiselee, Z. Koszegi, D. Maurel, R. Sounier, H. Huebner, P. Gmeiner, S. Granier, D. Calebiro, M. Decker. Ang. Chem. Int. Ed. 2020, 59, 2-9). In brief, HEK-293T cells were grown to confluence of approximately 70% and transiently transfected with the cDNA of the human µOR receptor and the hybrid G-protein Gαqi. After one day cells were seeded into 384-well microplates. For testing cells were incubated with test compounds (final range of concentration from 1 pM up to 10 µM) for 180 min at 37 °C followed by addition of detection reagents. Time resolved fluorescence resonance energy transfer (HTRF) was determined using a microplate reader. Each compound was tested in duplicates in 3-9 individual experiments in comparison to the reference compound DAMGO. The resulting dose response curves were analyzed by nonlinear regression using the algorithms in PRISM 6.0 (GraphPad software, San Diego, CA), fitted with a sigmoid model and normalized to basal activity (0 %) and the maximal effect caused by the reference full agonist DAMGO (100 %).
(§4) In the above table, the numbers indicate mean EC50 values in nM and Emax values relative to the full effect of reference agonist DAMGO [=100%], respectively and are derived from 3-9 individual experiments for G-protein signaling and 3-8 tests for arrestin recruitment. ND = not determined.

µOR [2] = target: T3, µOR; experiment: competitive radioligand binding with [3H]diprenorphine, membranes of transfected HEK 293T cells; set-up: expressed in transfected cells; host or cells: HEK 293T cells, transient transfection, membrane preparation
Protocol: as §1, §2

µOR [3] = target: T3, µOR; experiment: β-arrestin-2 recruitment, enzyme-fragment complementation assay in HEK-293 cells; format: cell-based; set-up: expressed in transfected cells; host or cells: HEK-293 cells stably expressing EA-tagged β-arrestin-2, transiently transfected with µOR-PK1; settings: for Emax: HEK293, relative to the full effect of reference agonist DAMGO [=100%]; for β-arrestin recruitment EC50: mean of 3-8 tests, 90 min incubation, CBA = could not be analyzed (no dose-response curve)
Protocol: as §3
Measurement of β-arrestin-2 recruitment was done applying an enzyme-fragment complementation assay as described previously (C. Gentzsch, K. Seier, A. Drakopoulos, M.-L. Jobin, Y. Lanoiselee, Z. Koszegi, D. Maurel, R. Sounier, H. Huebner, P. Gmeiner, S. Granier, D. Calebiro, M. Decker. Ang. Chem. Int. Ed. 2020, 59, 2-9. J. Hellmann, M. Drabek, J. Yin, J. Gunera, T. Proell, F. Kraus, C.J. Langmead, H. Huebner, D. Weikert, P. Kolb, D.M. Rosenbaum, P. Gmeiner. PNAS 2020, 117, 18059-18067). In brief, HEK-293 cells stably expressing the enzyme acceptor (EA) tagged β-arrestin-2 fusion protein were transiently co-transfected with the ProLink tagged µOR-PK1 After 24 h cells were transferred into 384-well microplates and cultured for further 24 h. To start arrestin recruitment compounds were added to the cells to get a final concentration in a range of 10 pM to 100 µM. After incubation for 90 min reaction was stopped by addition of detection mix. Chemiluminescence was determined in duplicates (3-8 individual experiments for each compound in comparison to the reference agonist DAMGO). Data analysis was done as described above.
as §4

[4] = radioligand [3H]diprenorphine, number in brackets = number of experiments, read-out: mean Ki value δOR
[5] = radioligand [3H]diprenorphine, number in brackets = number of experiments, read-out: mean Ki value κOR

## C/C(=C\C(=O)NC[C@H](Cc1ccc(O)cc1)N(C)C)c1ccccc1 [Example 3, (S,E)-N-(2-(Dimethylamino)-3-(4-hydroxyphenyl)propyl)-3-phenylbut-2-enamide]
δOR; [4]
  Ki: 120 nM
κOR; [5]
  Ki: 120 nM
µOR [1]
  EC50: 11 nM
  Emax: 76%
µOR [2]
  Ki: 28 nM
µOR [3]
  Emax: < 5%
  β-arrestin recruitment EC50: CBA

## C/C(=C\c1ccccc1)C(=O)NC[C@H](Cc1ccc(O)cc1)N(C)C [Example 4, (S,E)-N-(2-(Dimethylamino)-3-(4-hydroxyphenyl)propyl)-2-methyl-3-phenylacrylamide]
δOR
  Ki: 49 nM
κOR; [5]
  Ki: 110 nM
µOR [1]
  EC50: 17 nM
  Emax: 62%
µOR [2]
  Ki: 46 nM
µOR [3]
  Emax: < 5%
  β-arrestin recruitment EC50: CBA

## CN(C)[C@H](CNC(=O)/C=C/c1ccccc1C(F)(F)F)Cc1ccc(O)cc1 [Example 7, (S,E)-N-(2-(Dimethylamino)-3-(4-hydroxyphenyl)propyl)-3-(2-(trifluoromethyl)phenyl)acrylamide]
δOR; [4]
  Ki: 180 nM
κOR; [5]
  Ki: 140 nM
µOR [1]
  EC50: 13 nM
  Emax: 44%
µOR [2]
  Ki: 28 nM
µOR [3]
  Emax: < 5%
  β-arrestin recruitment EC50: CBA

## CN(C)[C@H](CNC(=O)/C=C/c1cccc(C(F)(F)F)c1)Cc1ccc(O)cc1 [Example 8, (S,E)-N-(2-(Dimethylamino)-3-(4-hydroxyphenyl)propyl)-3-(3-(trifluoromethyl)phenyl)acrylamide formiate]
δOR
  Ki: 120 nM
κOR
  Ki: 580 nM
µOR [1]
  EC50: 15 nM
  Emax: 100%
µOR [2]
  Ki: 30 nM
µOR [3]
  Emax: < 5%
  β-arrestin recruitment EC50: CBA

## CN(C)[C@H](CNC(=O)/C=C/c1ccc(C(F)(F)F)cc1)Cc1ccc(O)cc1 [Example 9, (S,E)-N-(2-(Dimethylamino)-3-(4-hydroxyphenyl)propyl)-3-(4-(trifluoromethyl)phenyl)acrylamide]
δOR; [4]
  Ki: 1100 nM
κOR; [5]
  Ki: 2800 nM
µOR [1]
  EC50: 67 nM
  Emax: 92%
µOR [2]; radioligand [3H]diprenorphine, number in brackets = number of experiments, read-out: mean Ki value µOR
  Ki: 170 nM
µOR [3]
  Emax: < 5%
  β-arrestin recruitment EC50: CBA

## Cc1cc(O)cc(C)c1C[C@H](N)CNC(=O)/C=C/c1ccccc1 [Example 10, (S)-N-(2-Amino-3-(4-hydroxy-2,6-dimethylphenyl)propyl)cinnamamide formiate]
δOR
  Ki: 510 nM
κOR
  Ki: 440 nM
µOR [1]
  Emax: < 5%
µOR [1]; mean of 3-9 experiments, 180 min at 37 °C, CBA = could not be analyzed (no dose-response curve)
  G-protein signaling EC50: CBA
µOR [2]
  Ki: 58 nM
µOR [3]
  Emax: < 5%
  β-arrestin recruitment EC50: CBA

## NC(=O)c1ccc(C[C@H](N)CNC(=O)/C=C/c2cccc(C(F)(F)F)c2)cc1 [Example 14, (S,E)-4-(2-Amino-3-(3-(3-(trifluoromethyl)phenyl)acrylamido)propyl)benzamide formiate]
δOR
  Ki: 2900 nM
κOR
  Ki: 5600 nM
µOR [1]
  Emax: 75%
µOR [1]; mean of 3-9 experiments, 180 min at 37 °C, CBA = could not be analyzed (no dose-response curve), read-out: G-protein signaling EC50
  EC50: 2200 nM
µOR [2]
  Ki: 460 nM
µOR [3]
  Emax: < 5%
  β-arrestin recruitment EC50: CBA

## CN(C)[C@H](CNC(=O)/C=C/c1cccc(C(F)(F)F)c1)Cc1ccc(C(N)=O)cc1 [Example 15, (S,E)-4-(2-(Dimethylamino)-3-(3-(3-(trifluoromethyl)phenyl)acrylamido)propyl)benzamide formiate]
δOR
  Ki: 55 nM
κOR
  Ki: 450 nM
µOR [1]
  EC50: 6.3 nM
  Emax: 95%
µOR [2]
  Ki: 6.7 nM
µOR [3]
  EC50: 130 nM
  Emax: 5%

## CN(C)[C@H](CNC(=O)/C=C/c1cccc2ccccc12)Cc1ccc(C(N)=O)cc1 [Example 18, (S,E)-4-(2-(Dimethylamino)-3-(3-(naphthalen-1-yl)acrylamido)propyl)benzamide formiate]
δOR
  Ki: 130 nM
κOR
  Ki: 200 nM
µOR [1]
  EC50: 9.8 nM
  Emax: 92%
µOR [2]
  Ki: 6.2 nM
µOR [3]
  EC50: 120 nM
  Emax: 4%

## CN(C)[C@H](CNC(=O)/C=C/c1ccsc1)Cc1ccc(O)cc1 [Example 19, (S,E)-N-(2-(Dimethylamino)-3-(4-hydroxyphenyl)propyl)-3-(thiophen-3-yl)acrylamide]
δOR
  Ki: 59 nM
κOR; [5]
  Ki: 130 nM
µOR [1]
  EC50: 7.5 nM
  Emax: 53%
µOR [2]
  Ki: 8.5 nM
µOR [3]
  Emax: < 5%
  β-arrestin recruitment EC50: CBA

Source: patent publication EP3964497A1, “SUBSTITUTED VICINAL DIAMINE COMPOUNDS AND THEIR USE IN THE TREATMENT, AMELIORATION OR PREVENTION OF PAIN” (priority 2020, dated 2022)
